Format: physicochemical
Conditions: for melatonin available in the solution / solubilized: 7 min, 0.2 mg/mL
Procedure: The water solubility of non-compacted melatonin (starting material used for compaction in Example 1) and the solubility of the compacted melatonin prepared in Example 1 were compared.
Three samples of 10 mg each of non-compacted melatonin and three samples of 10 mg each of compacted melatonin were introduced in separate beakers and tap water at 22 °C was added to each beaker to a volume of 10, 25 or 50 ml (assays A, B and C, respectively). Each tested mixture was sonicated for 5 minutes and subsequently subjected to magnetic stirring at 200 rpm for 2 more minutes.

Solubility test, assay A (10 mg / 10 ml) | Solubility test, assay B (10 mg / 25 ml) | melatonin available in the solution / solubilized [%] | dissolution rate compared with non-compacted melatonin (ocular inspection, in each of assays A, B and C (10 mg in 10, 25 or 50 ml water)) | melatonin remained as solid, not dissolved (HPLC analysis, assay C, 10 mg in 50 ml tap water at 22 °C) [%] | Structure (SMILES)
(partially dissolved) | (partially dissolved) | 100 | higher dissolution rate |  | COc1ccc2[nH]cc(CCNC(C)=O)c2c1 [Compacted-melatonin, N-[2-(5-methoxy-1H-indol-3-yl)ethyl)acetamide]
(partially dissolved) | (partially dissolved) | 79 |  | 21 | COc1ccc2[nH]cc(CCNC(C)=O)c2c1 [Non-compacted melatonin, N-[2-(5-methoxy-1H-indol-3-yl)ethyl)acetamide]

From patent publication EP3705117A1, “MELATONIN HAVING IMPROVED WATER SOLUBILITY, ITS PREPARATION AND USES THEREOF” (Tradichem Industrial Services, S.L., priority 2019, dated 2020)
